Test results: publication PMC11467737, “Osteocalcin binds to a GPRC6A Venus fly trap allosteric site to positively modulate GPRC6A signaling” (FASEB BioAdvances, 2024)
Substitutions are numbered along the chain they refer to. Bridge positions count the residues as written; N and C are the ends. Ends that are not written are not given here.

Experiments:
K352E/H355P hGPRC6A = target: T1, K352E/H355P hGPRC6A (Homo sapiens, UniProt Q5T6X5, H355P/K352E); assay: cAMP accumulation in HEK-293 cells transfected with K352E/H355P hGPRC6A; assay type: cell-based; conditions: for cAMP accumulation by Ocn small fragments: K352E/H355P double mutant, fragment at 20 nM, Figure 6C
T1 construct: expressed in transfected cells; host or cells: HEK-293, pcDNA3
T1 sequence (Q5T6X5 19-926 K352E/H355P): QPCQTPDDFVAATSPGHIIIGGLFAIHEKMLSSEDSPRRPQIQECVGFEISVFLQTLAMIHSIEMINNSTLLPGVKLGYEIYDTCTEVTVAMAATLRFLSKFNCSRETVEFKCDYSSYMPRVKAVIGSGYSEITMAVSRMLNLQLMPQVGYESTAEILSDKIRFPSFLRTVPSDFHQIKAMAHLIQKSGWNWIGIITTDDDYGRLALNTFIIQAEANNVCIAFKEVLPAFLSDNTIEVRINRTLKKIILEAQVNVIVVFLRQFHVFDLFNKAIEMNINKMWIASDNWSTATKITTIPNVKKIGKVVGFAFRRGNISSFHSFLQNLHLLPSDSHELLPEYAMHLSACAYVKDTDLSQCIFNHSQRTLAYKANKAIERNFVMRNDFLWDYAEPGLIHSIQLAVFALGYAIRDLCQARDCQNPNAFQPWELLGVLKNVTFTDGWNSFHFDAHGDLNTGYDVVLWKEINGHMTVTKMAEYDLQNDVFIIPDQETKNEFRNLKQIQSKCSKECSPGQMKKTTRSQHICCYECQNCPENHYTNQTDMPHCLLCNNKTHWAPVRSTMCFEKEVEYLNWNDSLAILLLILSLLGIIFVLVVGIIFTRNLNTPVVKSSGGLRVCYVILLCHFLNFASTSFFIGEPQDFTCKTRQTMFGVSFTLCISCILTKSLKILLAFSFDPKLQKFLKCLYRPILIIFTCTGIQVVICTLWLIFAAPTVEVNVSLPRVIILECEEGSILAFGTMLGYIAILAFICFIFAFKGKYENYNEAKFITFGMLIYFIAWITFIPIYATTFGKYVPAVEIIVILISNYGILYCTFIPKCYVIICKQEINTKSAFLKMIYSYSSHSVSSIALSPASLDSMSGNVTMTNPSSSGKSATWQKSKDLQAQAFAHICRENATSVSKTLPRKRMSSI
Protocol: HEK‐293 transfected with human GPRC6A isoform cDNA plasmids cells (10^5 cells/well)[30] were cultured in 24‐well plates in DMEM supplemented with 10% fetal bovine serum and 1% penicillin/streptomycin (100 U/mL of penicillin and 100 μg/mL of streptomycin) for 48 h followed by 4 h incubation in DMEM/F12 containing 0.1% BSA and 0.5 mM IBMX to achieve quiescence and preventing cAMP degradation. Quiescent cells were treated with vehicle control, various ligands at concentration as indicated for 40 min at 37°C. Then, the reaction was stopped, and the cells lysed with 0.5 mL 0.1 N HCl. cAMP levels were measured by using Cyclic AMP EIA kit (Cayman Chemical; Ann Arbor, MA, USA) following the manufacture's protocol.
(§1) In‐vitro mutagenesis by PCR‐mediated recombination QuikChange II XL Site‐Directed Mutagenesis Kit (Agilent) was performed using the cDNA of human GPRC6A cloned in the vector pcDNA3 (Invitrogen) as a template. The primer sets are as follows. K352E.sen: […]; K352E.antisen: […]; H355P.sen: […]; H355P.antisen: […]; K352E/H355P.sen: […]; and K352E/H355P.antisen: […]. All mutants were confirmed by sequencing.

K352E hGPRC6A = target: T2, K352E hGPRC6A (Homo sapiens, UniProt Q5T6X5, K352E); assay: ERK activation in HEK-293 cells transfected with K352E hGPRC6A; assay type: cell-based; conditions: K352E mutant; for ERK activation by Ocn small fragments: fragment at 20 nM, Figure 6D
T2 construct: expressed in transfected cells; host or cells: HEK-293, pcDNA3
T2 sequence (Q5T6X5 19-926 K352E): T1 sequence (Q5T6X5 19-926 K352E/H355P) with P337H
Protocol: All culture reagents were from Invitrogen (Waltham, MA, USA). Human embryonic kidney HEK‐293 cells were obtained from American Type Culture Collection and cultured in DMEM medium supplemented with 10% fetal bovine serum and 1% Penicillin/Streptomycin (P/S). Briefly, HEK‐293 cells transfected with/without human GPRC6A isoforms cDNA plasmids were starved by overnight incubation in serum‐free DMEM/F12 containing 0.1% bovine serum albumin (BSA) and stimulated with various ligands at different doses. ERK activation was assessed 20 min after treatment by using ERK1/2 (phospho‐T203/Y204) ELISA Kit (Invitrogen; Waltham, MA, USA) corrected for the amount of total ERK using ERK1/2 (Total) ELISA Kit (Invitrogen; Waltham, MA, USA) to measure ERK levels.
as §1

Row | cAMP accumulation by Ocn small fragments (K352E/H355P hGPRC6A) | ERK activation by Ocn small fragments (K352E hGPRC6A) | cAMP accumulation, dose response of full-length Ocn, versus wild-type receptor (K352E/H355P hGPRC6A; K352E/H355P mutant, Figure 6A) | ERK phosphorylation, dose response of full-length Ocn, versus wild-type receptor (K352E hGPRC6A; Figure 6B) | Substance
1 | no response | no response |  |  | REVCELNPDC (disulfide 4-10 (inferred)) [Ocn 20–29, synthesized human Ocn decapeptide fragment located in the middle of the protein]
2 | partially activate | significantly attenuated |  |  | RFYGPV [Ocn 44–49, synthesized human Ocn C‐terminal hexapeptide]
3 |  |  | significantly decreased | significantly decreased | osteocalcin (YLYQWLGAPVPYPDPLEPRREVCELNPDCDELADHIGFQEAYRRFYGPV; not fully specified; ends and bridges not checked; UniProt P02818 52-100, looked up) [Ocn 1–49, full human Ocn (49 aa) synthesized by BioMatik; methods also describe decarboxylated Ocn purified from bovine tibial bone, reference compound]
